Experiment [1] deals with rice blast (Pyricularia oryzae). In kind it is in vivo. The settings on record: potted rice (variety Karakaze), spraying liquid 300 ppm after spore inoculation, observed 7 days after inoculation, levels 0 to 3.
Experiment [2] concerns gray mold (Botrytis cinerea). Kind of experiment: Tomato gray mold control test (preventive effects). The settings on record: potted tomato (giant Fukuju variety), spraying liquid 300 ppm before spore inoculation, investigated 2 days after inoculation, levels 0 to 3. In kind it is in vivo. The method, then: Bulk drug was dissolved in a mixed solution of dimethylsulfoxide and methanol (volume ratio: 7/3), and spraying liquids containing 300 ppm of compounds of the present invention were uniformly sprayed onto potted test plants (tomato: giant Fukuju variety) in the second to third leaf stage. […], a suspension of pathogen spores were inoculated by spraying onto the pots in an inoculation room at a room temperature of 20 to 23° C. to promote the onset of disease. The degree of disease onset was investigated 2 days after inoculation. The test was carried out in duplicate.
Furthermore, the degree of disease onset was evaluated to one of four levels from 0 to 3 according to the criteria below by macroscopically observing the degree of disease onset of the test plants.
1: Degree of disease onset less than 40% of the untreated area
2: Degree of disease onset 40% to less than 80% of the untreated area
3: Degree of disease onset 80% or more

On to “5-fluoro-3,3,4,4-tetramethyl-8b-(1-oxidequinoline-3-yl)-4,8b-dihydro-3H-oxazileno[3,2-a]isoquinoline [Example 198]”, for which the “degree of disease onset” value in experiment [1] was found to be 0.

On to `CC1(C)Cc2ccccc2C(c2cnc3ccccc3c2)=N1` [Example 6, 3-(3,3-dimethyl-3,4-dihydroisoquinolin-1-yl)quinoline], for which the “degree of disease onset” value in experiment [1] is 0.

As for `CC1(C)Cc2ccccc2C(c2cnc3c(F)cccc3c2)=N1` [Example 7, 3-(3,3-dimethyl-3,4-dihydroisoquinolin-1-yl)-8-fluoroquinoline], the “degree of disease onset” value in experiment [1] stood at 0.

`Cc1cccc2cc(C3=NC(C)(C)Cc4ccccc43)cnc12` [Example 9, 3-(3,3-dimethyl-3,4-dihydroisoquinolin-1-yl)-8-methylquinoline]: in experiment [1], the “degree of disease onset” value is given as 0.

Consider `CC1(C)Cc2cc(F)ccc2C(c2cnc3ccccc3c2)=N1` [Example 16, 3-(6-fluoro-3,3-dimethyl-3,4-dihydroisoquinolin-1-yl)quinoline], for which the “degree of disease onset” value in experiment [1] amounted to 0.

For the molecule `CC1(C)Cc2cc(Cl)ccc2C(c2cnc3ccccc3c2)=N1` [Example 20, 3-(6-chloro-3,3-dimethyl-3,4-dihydroisoquinolin-1-yl)quinoline], the “degree of disease onset” value in experiment [2] is 0.

With `CC1(C)Cc2cc(Br)ccc2C(c2cnc3ccccc3c2)=N1` [Example 23, 3-(6-bromo-3,3-dimethyl-3,4-dihydroisoquinolin-1-yl)quinoline], the “degree of disease onset” value in experiment [2] is reported as 0.

As for `Cc1cccc2c1CC(C)(C)N=C2c1cnc2ccccc2c1` [Example 26, 3-(3,3,5-trimethyl-3,4-dihydroisoquinolin-1-yl)quinoline], the “degree of disease onset” value in experiment [1] came out at 0.

For `CC1(C)Cc2c(cccc2-c2cccs2)C(c2cnc3ccccc3c2)=N1` [Example 32, 3-[5-(2-thienyl)-3,3-dimethyl-3,4-dihydroisoquinolin-1-yl]quinoline], the “degree of disease onset” value in experiment [1] is 0.

On to `CC1(C)Cc2c(cccc2-c2ccsc2)C(c2cnc3ccccc3c2)=N1` [Example 33, 3-[5-(3-thienyl)-3,3-dimethyl-3,4-dihydroisoquinolin-1-yl]quinoline], for which, in experiment [1], the “degree of disease onset” value is 0.

For the molecule `CON=C(C)c1cccc2c1CC(C)(C)N=C2c1cnc2ccccc2c1` [Example 36, 1-(3,3-dimethyl-1-quinolin-3-yl-3,4-dihydroisoquinolin-5-yl)ethanone=O-methyloxime], the “degree of disease onset” value in experiment [1] is given as 0.

Consider `CCON=C(C)c1cccc2c1CC(C)(C)N=C2c1cnc2ccccc2c1` [Example 38, 1-(3,3-dimethyl-1-quinolin-3-yl-3,4-dihydroisoquinolin-5-yl)ethanone=O-ethyloxime], for which the “degree of disease onset” value in experiment [1] is recorded as 0.

With `CC(=NOc1ccccc1)c1cccc2c1CC(C)(C)N=C2c1cnc2ccccc2c1` [Example 44, 1-(3,3-dimethyl-1-quinolin-3-yl-3,4-dihydroisoquinolin-5-yl)ethanone=O-phenyloxime], in experiment [2], the “degree of disease onset” value was determined as 0.

As to `CC1(C)Cc2c(ccc(Cl)c2Cl)C(c2cnc3ccccc3c2)=N1` [Example 53, 3-(5,6-dichloro-3,3-dimethyl-3,4-dihydroisoquinolin-1-yl)quinoline], the “degree of disease onset” value in experiment [2] is listed as 0.

On to `CCC1(C)Cc2ccccc2C(c2cnc3ccccc3c2)=N1` (centres unmarked) [Example 55, 3-(3-ethyl-3-methyl-3,4-dihydroisoquinolin-1-yl)quinoline], for which the “degree of disease onset” value in experiment [1] is given as 0.

In the case of `CCCC1(C)Cc2ccccc2C(c2cnc3ccccc3c2)=N1` (centres unmarked) [Example 57, 3-(3-methyl-3-propyl-3,4-dihydroisoquinolin-1-yl)quinoline], the “degree of disease onset” value in experiment [1] was found to be 0.

`CC(C)C1(C)Cc2ccccc2C(c2cnc3ccccc3c2)=N1` (centres unmarked) [Example 59, 3-(3-isopropyl-3-methyl-3,4-dihydroisoquinolin-1-yl)quinoline]: in experiment [1], the “degree of disease onset” value came out at 0.

In the case of `CC(C)CC1(C)Cc2ccccc2C(c2cnc3ccccc3c2)=N1` (centres unmarked) [Example 60, 3-(3-isobutyl-3-methyl-3,4-dihydroisoquinolin-1-yl)quinoline], in experiment [1], the “degree of disease onset” value is on record as 0.

On to `CC(C)CCC1(C)Cc2ccccc2C(c2cnc3ccccc3c2)=N1` (centres unmarked) [Example 62, 3-(3-isopentyl-3-methyl-3,4-dihydroisoquinolin-1-yl)quinoline], for which the “degree of disease onset” value in experiment [1] was 0.

Regarding `CCC1(CC)Cc2ccccc2C(c2cnc3ccccc3c2)=N1` [Example 63, 3-(3,3-diethyl-3,4-dihydroisoquinolin-1-yl)quinoline], in experiment [1], the “degree of disease onset” value stood at 0.

As for `FC(F)(F)C1(c2ccccc2)Cc2ccccc2C(c2cnc3ccccc3c2)=N1` (centres unmarked) [Example 74, 3-(3-trifluoromethyl-3-phenyl-3,4-dihydroisoquinolin-1-yl)quinoline], the “degree of disease onset” value in experiment [1] is on record as 0.

Regarding `c1ccc2c(c1)CC1(CCCC1)N=C2c1cnc2ccccc2c1` [Example 80, 1′-quinolin-3-yl-4′H-spiro[cyclopentane-1,3′-isoquinoline]], the “degree of disease onset” value in experiment [1] amounted to 0.

In the case of `Fc1cccc2c1CC1(CCCC1)N=C2c1cnc2ccccc2c1` [Example 81, 5′-fluoro-1′-quinolin-3-yl-4′H-spiro[cyclopentane-1,3′-isoquinoline]], the “degree of disease onset” value in experiment [1] was 0.

Consider `Fc1ccc2c(c1)CC1(CCCC1)N=C2c1cnc2ccccc2c1` [Example 82, 6′-fluoro-1′-quinolin-3-yl-4′H-spiro[cyclopentane-1,3′-isoquinoline]], for which the “degree of disease onset” value in experiment [1] turned out to be 0.

In the case of `Clc1ccc2c(c1)CC1(CCCCC1)N=C2c1cnc2ccccc2c1` [Example 92, 6′-chloro-1′-quinolin-3-yl-4′H-spiro[cyclohexane-1,3′-isoquinoline]], the “degree of disease onset” value in experiment [2] was determined as 0.

For the molecule `CC1CCC2(Cc3ccccc3C(c3cnc4ccccc4c3)=N2)C1` (centres unmarked) [Example 101, 1′-quinolin-3-yl-4′H-spiro[(3-methylcyclopentane)-1,3′-isoquinoline]], the “degree of disease onset” value in experiment [1] worked out at 0.

As to `CC1(C)Cc2c(F)cccc2C(c2cnc3ccccc3c2)=N1.O=S(=O)(O)O` [Example 104, 3-(5-fluoro-3,3-dimethyl-3,4-dihydroisoquinolin-1-yl)quinoline sulfate], the “degree of disease onset” value in experiment [1] is 0.

Consider `CC1(C)Cc2c(F)cccc2C(c2cnc3ccccc3c2)=N1.O=[N+]([O-])O` [Example 105, 3-(5-fluoro-3,3-dimethyl-3,4-dihydroisoquinolin-1-yl)quinoline nitrate], for which the “degree of disease onset” value in experiment [1] is 0.

As for `CC1(C)Cc2c(F)cccc2C(c2cnc3ccccc3c2)=N1.O=C(O)C(=O)O` [Example 106, 3-(5-fluoro-3,3-dimethyl-3,4-dihydroisoquinolin-1-yl)quinoline oxalate], the “degree of disease onset” value in experiment [1] is reported as 0.

For `CON=Cc1cccc2c1CC(C)(C)N=C2c1cnc2ccccc2c1` [Example 117, 1-(3,3-dimethyl-1-quinolin-3-yl-3,4-dihydroisoquinolin-5-yl)methanone=O-methyloxime], the “degree of disease onset” value in experiment [1] was determined as 0.

For the molecule `CC1c2ccccc2C(c2cnc3ccccc3c2)=NC1(C)C` (centres unmarked) [Example 119, 3-(3,3,4-trimethyl-3,4-dihydroisoquinolin-1-yl)quinoline], the “degree of disease onset” value in experiment [1] is 0.

Regarding `CC1c2c(F)cccc2C(c2cnc3ccccc3c2)=NC1(C)C` (centres unmarked) [Example 120, 3-(5-fluoro-3,3,4-trimethyl-3,4-dihydroisoquinolin-1-yl)quinoline], the “degree of disease onset” value in experiment [2] is given as 0.

For `CC1(C)Cc2c(cccc2C(F)F)C(c2cnc3ccccc3c2)=N1` [Example 132, 3-(5-difluoromethyl-3,3-dimethyl-3,4-dihydroisoquinolin-1-yl)quinoline], the “degree of disease onset” value in experiment [1] is reported as 0.

For the molecule `CC1(C)N=C(c2cnc3ccccc3c2)c2ccc(F)cc2C1(C)C` [Example 150, 3-(6-fluoro-3,3,4,4-tetramethyl-3,4-dihydroisoquinolin-1-yl)quinoline], the “degree of disease onset” value in experiment [1] is reported as 0.

Regarding `Cc1cccc2c1C(C)(C)C(C)(C)N=C2c1cnc2ccccc2c1` [Example 160, 3-(3,3,4,4,5-pentamethyl-3,4-dihydroisoquinolin-1-yl)quinoline], the “degree of disease onset” value in experiment [1] is recorded as 0.

As to `c1ccc2c(c1)C(c1cnc3ccccc3c1)=NCC21CCC1` [Example 171, 1′-quinolin-3-yl-4′H-spiro[cyclobutane-1,4′-isoquinoline]], the “degree of disease onset” value in experiment [1] is 0.

On to `CC1(C)N=C(c2cnc3ccccc3c2)c2cccc(F)c2C1(C)O` (centres unmarked) [Example 181, 3-(5-fluoro-4-hydroxy-3,3,4-trimethyl-3,4-dihydroisoquinolin-1-yl)quinoline], for which the “degree of disease onset” value in experiment [1] is given as 0.

On to `COC1(C)c2c(F)cccc2C(c2cnc3ccccc3c2)=NC1(C)C` (centres unmarked) [Example 183, 3-(5-fluoro-4-methoxy-3,3,4-trimethyl-3,4-dihydroisoquinolin-1-yl)quinoline], for which the “degree of disease onset” value in experiment [1] was 0.

Take `CC1c2ccccc2C(c2cnc3ccccc3c2)=[N+]([O-])C1(C)C` (centres unmarked) [Example 206, 3-(3,3,4-trimethyl-2-oxide-3,4-dihydroisoquinolin-1-yl)quinoline]: in experiment [1], the “degree of disease onset” value worked out at 0.

Regarding `CC1(C)Cc2c(F)cccc2C(c2cnc3ccccc3c2)=[N+]1[O-]` [Example 208, 3-(5-fluoro-3,3-dimethyl-2-oxide-3,4-dihydroisoquinolin-1-yl)quinoline], the “degree of disease onset” value in experiment [1] amounted to 0.

With `CC1(C)c2ccc(F)cc2C(c2cnc3ccccc3c2)=[N+]([O-])C1(C)C` [Example 210, 3-(7-fluoro-3,3,4,4-tetramethyl-2-oxide-3,4-dihydroisoquinolin-1-yl)quinoline], the “degree of disease onset” value in experiment [1] came to 0.
